# Source: US11046714B2, “2,2-difluorodioxolo A2A receptor antagonists” (Merck Sharp & Dohme Corp., priority 2013, dated 2021)
# Molecular target: human A2A receptor (Homo sapiens (Human), UniProt P29274)
# Experiment: competition binding assay using Scintillation Proximity technology
# Conditions: membranes from CHO-K1 cells expressing the human A2a receptor; 2.0 nM tritiated compound; Cheng-Prusoff
# Procedure, shortened: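 Membranes (1.0 μg) from CHO-K1 cells expressing human A2A were treated with adenosine deaminase, then incubated 1 h at room temperature with compound (3000–0.15 nM) and 2.0 nM tritiated SCH-type ligand on WGA SPA beads in PBS plus 10 mM MgCl2. Nonspecific binding was defined with 1 μM CGS 15943. Ki was derived from EC50 via Cheng-Prusoff.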
# Chain of human A2A receptor (P29274 whole entry): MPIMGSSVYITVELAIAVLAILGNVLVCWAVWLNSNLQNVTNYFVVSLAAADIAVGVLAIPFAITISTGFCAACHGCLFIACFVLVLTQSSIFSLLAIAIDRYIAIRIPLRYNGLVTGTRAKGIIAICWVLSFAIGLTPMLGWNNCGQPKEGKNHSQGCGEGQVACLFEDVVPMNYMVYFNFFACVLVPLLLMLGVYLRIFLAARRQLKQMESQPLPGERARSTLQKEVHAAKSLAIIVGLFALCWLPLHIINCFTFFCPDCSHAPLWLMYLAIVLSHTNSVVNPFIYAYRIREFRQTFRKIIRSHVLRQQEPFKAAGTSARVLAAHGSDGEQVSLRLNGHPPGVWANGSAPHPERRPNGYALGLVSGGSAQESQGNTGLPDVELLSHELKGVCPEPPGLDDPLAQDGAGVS
row,Structure (SMILES),Ki
1,"Nc1nc2c3c(ccc2c2nc(CCN4CCCC(C(F)(F)F)C4)nn12)OC(F)(F)O3 (stereo not shown) [Example 62, 2,2-difluoro-8-{2-[3-(trifluoromethyl)piperidin-1-yl]ethyl}[1,3]dioxolo[4,5-h][1,2,4]triazolo[1,5-c]quinazolin-5-amine]",3.6 nM
2,"Nc1nc2c3c(ccc2c2nc(CCNC4CC5(CNC5)C4)nn12)OC(F)(F)O3 [Example 57, 8-[2-(2-azaspiro[3.3]hept-6-ylamino)ethyl]-2,2-difluoro [1,3]dioxolo[4,5-h][1,2,4] triazolo[1,5-c]quinazolin-5-amine]",90 nM
3,"C[C@@H](Cc1nc2c3ccc4c(c3nc(N)n2n1)OC(F)(F)O4)N1Cc2ccncc2C1 [Example 87, (S)-8-(2-(1H-pyrrolo[3,4-c]pyridin-2(3H)-yl)propyl)-2,2-difluoro-[1,3]dioxolo[4,5-h][1,2,4]triazolo[1,5-c]quinazolin-5-amine]",7.7 nM
4,"Nc1nc2c3c(ccc2c2nc([C@@H]4CCCN(CC(F)(F)F)C4)nn12)OC(F)(F)O3 [Example 138, (R)-2,2-difluoro-8-(1-(2,2,2-trifluoroethyl)piperidin-3-yl)-[1,3]dioxolo[4,5-h][1,2,4]triazolo[1,5-c]quinazolin-5-amine]",1 nM
5,"Nc1nc2c3c(ccc2c2nc(Cc4cccnc4N4CC[C@@H](c5ccc(F)cc5)C4)nn12)OC(F)(F)O3 [Example 4, (S)-2,2-difluoro-8-((2-(3-(4-fluorophenyl)pyrrolidin-1-yl)pyridin-3-yl)methyl)-[1,3]dioxolo[4,5-h][1,2,4]triazolo[1,5-c]quinazolin-5-amine]",8.3 nM
6,"Nc1nc2c3c(ccc2c2nc(CC(C(F)F)N4Cc5cccnc5C4)nn12)OC(F)(F)O3 (single isomer, unassigned) [Example 98, (R or S)-8-(3,3-difluoro-2-(5H-pyrrolo[3,4-b]pyridin-6(7H)-yl)propyl)-2,2-difluoro-[1,3]dioxolo[4,5-h][1,2,4]triazolo[1,5-c]quinazolin-5-amine]",6.6 nM
7,"Nc1nc2c3c(ccc2c2nc(C4CCCN(c5cncnc5)C4)nn12)OC(F)(F)O3 (single isomer, unassigned) [Example 147, (R or S)-2,2-difluoro-8-(1-pyrimidin-5-ylpiperidin-3-yl)[1,3]dioxolo[4,5-h][1,2,4]triazolo[1,5-c]quinazolin-5-amine]",2.9 nM
8,"Cc1nc2c3ccc4c(c3nc(N)n2n1)OC(F)(F)O4 [Example 2, 2,2-difluoro-8-methyl-[1,3]dioxolo[4,5-h][1,2,4]triazolo[1,5-c]quinazolin-5-amine]",6.2 nM
9,"Nc1nc2c3c(ccc2c2nc(CN4CC(F)(F)C4)nn12)OC(F)(F)O3 [Example 109, 8-((3,3-difluoroazetidin-1-yl)methyl)-2,2-difluoro-[1,3]dioxolo[4,5-h][1,2,4]triazolo[1,5-c]quinazolin-5-amine]",5.9 nM
10,"Nc1nc2c3c(ccc2c2nc(C[C@H](N)C4CC4)nn12)OC(F)(F)O3 [Example 158, 8-[(2S)-2-amino-2-cycloproplethyl]-2,2-difluoro[1,3]dioxolo[4,5-h][1,2,4]triazolo[1,5-c]quinazolin-5-amine]",19 nM
11,"CC1(C)CN(CCc2nc3c4ccc5c(c4nc(N)n3n2)OC(F)(F)O5)C1 [Example 33, 8-[2-(3,3-dimethylazetidin-1-yl)ethyl]-2,2-difluoro[1,3]dioxolo [4,5-h][1,2,4]triazolo[1,5-c]quinazolin-5-amine]",29 nM
12,"C[C@H](Cc1nc2c3ccc4c(c3nc(N)n2n1)OC(F)(F)O4)N1CCc2cccnc2C1 [Example 78, 8-[(2R)-2-(5,8-dihydro-1,7-naphthyridin-7(6H)-yl)propyl]-2,2-difluoro[1,3]dioxolo[4,5-h] [1,2,4]triazolo[1,5-c]quinazolin-5-amine]",1.4 nM
13,"Nc1nc2c3c(ccc2c2nc(CCN4CCCC5(CCNCC5)C4)nn12)OC(F)(F)O3 [Example 56, 8-[2-(2,9-diazaspiro[5.5]undec-2-yl)ethyl]-2,2-difluoro[1,3] dioxolo[4,5-h][1,2,4]triazolo [1,5-c]quinazolin-5-amine]",27 nM
14,"Nc1nc2c3c(ccc2c2nc(CCN4CC5CC4C(F)(F)C5)nn12)OC(F)(F)O3 (single isomer, unassigned) [Example 67, (R or S)-8-[2-(6,6-difluoro-2-azabicyclo[2.2.1]hept-2-yl)ethyl]-2,2-difluoro[1,3]dioxolo[4,5-h][1,2,4] triazolo[1,5-c]quinazolin-5-amine]",3.5 nM
15,"Nc1nc2c3c(ccc2c2nc(CN4CCC(F)(F)CC4)nn12)OC(F)(F)O3 [Example 119, 8-[(4,4-difluoropiperidin-1-yl)methyl]-2,2-difluoro[1,3]dioxolo[4,5-h][1,2,4] triazolo[1,5-c]quinazolin-5-amine]",1.7 nM
16,"Nc1nc2c3c(ccc2c2nc(CC4CCN(CCC(F)(F)F)C4)nn12)OC(F)(F)O3 (single isomer, unassigned) [Example 154, (R or S)-2,2-difluoro-8-{[1-(3,3,3-trifluoropropyl)pyrrolidin-3-yl]methyl}[1,3]dioxolo[4,5-h][1,2,4]triazolo[1,5-c]quinazolin-5-amine]",20 nM
17,"C[C@@H]1CC[C@@H](C)N1CCc1nc2c3ccc4c(c3nc(N)n2n1)OC(F)(F)O4 [Example 34, 8-{2-[(2R,5R)-2,5-dimethylpyrrolidin-1-yl]ethyl}-2,2-difluoro[1,3]dioxolo[4,5-h][1,2,4]triazolo[1,5-c]quinazolin-5-amine]",11 nM
18,"Cc1nc2c(o1)CN([C@H](C)Cc1nc3c4ccc5c(c4nc(N)n3n1)OC(F)(F)O5)CC2 [Example 79, 2,2-difluoro-8-[(2R)-2-(2-methyl-6,7-dihydro[1,3]oxazolo[5,4-c]pyridine-5(4H)-yl)propyl][1,3] dioxolo[4,5-h][1,2,4]triazolo[1,5-c] quinazolin-5-amine]",1.3 nM

# Continued by falling Ki, values first:
row,Ki,Structure (SMILES)
1,59 nM,"Nc1nc2c3c(ccc2c2nc(C4CCCN(c5cccc(F)c5)C4)nn12)OC(F)(F)O3 (single isomer, unassigned) [Example 143, (R or S)-2,2-difluoro-8-[1-(3-fluorophenyl)piperidin-3-yl][1,3]dioxolo[4,5-h][1,2,4]triazolo[1,5-c]quinazolin-5-amine]"
2,31 nM,"CC(C)(Cc1nc2c3ccc4c(c3nc(N)n2n1)OC(F)(F)O4)N1CC(F)C1 [Example 101, 2,2-difluoro-8-(2-(3-fluoroazetidin-1-yl)-2-methylpropyl)-[1,3]dioxolo[4,5-h][1,2,4]triazolo[1,5-c]quinazolin-5-amine]"
3,27 nM,"CC1CCN(CCc2nc3c4ccc5c(c4nc(N)n3n2)OC(F)(F)O5)CC1 [Example 38, 2,2-difluoro-8-[2-(4-methylpiperidin-1-yl)ethyl][1,3]dioxolo[4,5-h][1,2,4]triazolo[1,5-c]quinazolin-5-amine]"
4,16 nM,"Nc1nc2c3c(ccc2c2nc(CN4Cc5cnc(C(F)(F)F)nc5C4)nn12)OC(F)(F)O3 [Example 121, 2,2-difluoro-8-{[2-(trifluoromethyl)-5,7-dihydro-6H-pyrrolo[3,4-d]pyrimidin-6-yl]methyl}[1,3]dioxolo [4,5-h][1,2,4]triazolo[1,5-c]quinazolin-5-amine]"
5,6.5 nM,Nc1nc2c3c(ccc2c2nc(CCN4Cc5cccnc5C4)nn12)OC(F)(F)O3 [Example 6]
6,6.2 nM,"Nc1nc2c3c(ccc2c2nc(CCNCc4ccc(C(F)(F)F)cc4)nn12)OC(F)(F)O3 [Example 59, 2,2-difluoro-8-(2-{[4-(trifluoromethyl)benzyl]amino}ethyl)[1,3]dioxolo[4,5-h][1,2,4]triazolo[1,5-c]quinazolin-5-amine]"
7,6.1 nM,"C[C@@H](Cc1nc2c3ccc4c(c3nc(N)n2n1)OC(F)(F)O4)N1CCCC(C)(F)C1 (single isomer, unassigned) [Example 89, 2,2-difluoro-8-{(2S)-2-[(3R or 3S)-3-fluoro-3-methylpiperidin-1-yl]propyl}[1,3] dioxolo[4,5-h] [1,2,4]triazolo[1,5-c]quinazolin-5-amine]"
8,4.9 nM,"C[C@H](Cc1nc2c3ccc4c(c3nc(N)n2n1)OC(F)(F)O4)N1CC(C)(F)C1 [Example 84, 2,2-difluoro-8-[(2R)-2-(3-fluoro-3-methylazetidin-1-yl)propyl][1,3] dioxolo[4,5-h][1,2,4]triazolo[1,5-c]quinazolin-5-amine]"
9,4.8 nM,"CC(Cc1nc2c3ccc4c(c3nc(N)n2n1)OC(F)(F)O4)N1CC(F)(F)C1 (single isomer, unassigned) [Example 93, (R or S)-8-[2-(3,3-difluoroazetidin-1-yl)propyl]-2,2-difluoro[1,3] dioxolo[4,5-h][1,2,4]triazolo[1,5-c] quinazolin-5-amine]"
10,3.9 nM,"Nc1nc2c3c(ccc2c2nc(CCN4CCCC(O)(C(F)(F)F)C4)nn12)OC(F)(F)O3 (single isomer, unassigned) [Example 71, (R or S)-1-(2-(5-amino-2,2-difluoro-[1,3]dioxolo[4,5-h][1,2,4]triazolo[1,5-c]quinazolin-8-yl)ethyl)-3-(trifluoromethyl)piperidin-3-ol]"
11,2.2 nM,"C[C@@H]1CC(F)(F)CCN1CCc1nc2c3ccc4c(c3nc(N)n2n1)OC(F)(F)O4 [Example 31, 8-{2-[(2R)-4,4-difluoro-2-methylpiperidin-1-yl]ethyl}-2,2-difluoro[1,3]dioxolo[4,5-h][1,2,4]triazolo[1,5-c]quinazolin-5-amine]"
12,1.8 nM,"C[C@@H]1CN(c2nsnc2Cl)CCN1CCc1nc2c3ccc4c(c3nc(N)n2n1)OC(F)(F)O4 [Example 46, 8-{2-[(2R)-4-(4-chloro-1,2,5-thiadiazol-3-yl)-2-methylpiperazin-1-yl]ethyl}-2,2-difluoro[1,3]dioxolo[4,5-h][1,2,4]triazolo[1,5-c]quinazolin-5-amine]"
13,1.1 nM,"Nc1nc2c3c(ccc2c2nc(CNC4(C(F)(F)F)CCC4)nn12)OC(F)(F)O3 [Example 125, 2,2-difluoro-8-({[1-(trifluoromethyl)cyclobutyl]amino}methyl)[1,3]dioxolo [4,5-h][1,2,4]triazolo[1,5-c]quinazolin-5-amine]"
